According to ChEMBL document CHEMBL1145584, “Cycloalkyl-substituted aryl chloroethylureas inhibiting cell cycle progression in G0/G1 phase and thioredoxin-1 nuclear translocation” (2008):
Calls of active or inactive are those of the source. The calls are words filed in the database; no cut-off is given here.

Tests used:
MCF7 [1] = assay: Cell cycle arrest in human MCF7 cells assessed as increase in G0/G1 phase accumulation at 50 uM after 16 hrs by FACS analysis; type: functional
MCF7 [2] = assay: Cell cycle arrest in human MCF7 cells assessed as increase in G2/M phase accumulation at 50 uM after 16 hrs by FACS analysis; type: functional
HT-29 [3] = assay: Antiproliferative activity against human HT29 cells at 100 uM; type: functional, cell-based
MCF7 [4] = assay: Antiproliferative activity against human MCF7 cells at 100 uM; type: functional, cell-based
MCF7 [5] = assay: Cell cycle arrest in human MCF7 cells assessed as increase in S phase accumulation at 50 uM after 16 hrs by FACS analysis; type: functional
M21 [6] = assay: Antiproliferative activity against human M21 cells at 100 uM; type: functional, cell-based
HT-29 [7] = assay: Antiproliferative activity against human HT29 cells; type: functional
M21 [8] = assay: Effect on thioredoxin-1 nuclear translocation in human M21 cells at 50 uM by immunocytochemistry analysis; type: functional, cell-based
M21 [9] = assay: Antiproliferative activity against human M21 cells; type: functional
MCF7 [10] = assay: Antiproliferative activity against human MCF7 cells; type: functional
MCF7 [11] = assay: Cell cycle arrest in human MCF7 cells assessed as increase in G2/M phase accumulation at 25 uM after 16 hrs by FACS analysis; type: functional
M21 [12] = assay: Effect on thioredoxin-1 nuclear translocation in human M21 cells at 30 uM after 24 hrs by Western blot analysis; type: functional, cell-based
MCF7 [13] = assay: Cell cycle arrest in human MCF7 cells assessed as increase in G0/G1 phase accumulation at 25 uM after 16 hrs by FACS analysis; type: functional
M21 [14] = assay: Effect on thioredoxin-1 nuclear translocation in human M21 cells at 25 uM after 24 hrs by Western blot analysis; type: functional, cell-based
MCF7 [15] = assay: Cell cycle arrest in human MCF7 cells assessed as increase in S phase accumulation at 25 uM after 16 hrs by FACS analysis; type: functional
M21 [16] = assay: Effect on thioredoxin-1 nuclear translocation in human M21 cells at 50 uM after 24 hrs by Western blot analysis; type: functional, cell-based
MCF7 [17] = assay: Cell cycle arrest in human MCF7 cells assessed as increase in G0/G1 phase accumulation at 2 times GI50 after 25 hrs by flow cytometry; type: functional, cell-based
MCF7 [18] = assay: Cell cycle arrest in human MCF7 cells assessed as increase in G0/G1 phase accumulation at 4 times GI50 after 25 hrs by flow cytometry; type: functional, cell-based
MCF7 [19] = assay: Cell cycle arrest in human MCF7 cells assessed as increase in G0/G1 phase accumulation at 1 time GI50 after 25 hrs by flow cytometry; type: functional, cell-based
M21 [20] = assay: Effect on thioredoxin-1 nuclear translocation in human M21 cells at 25 uM by immunocytochemistry analysis; type: functional, cell-based
MCF7 [21] = assay: Cell cycle arrest in human MCF7 cells assessed as increase in G2/M phase accumulation at 2 times GI50 after 25 hrs by flow cytometry; type: functional, cell-based
MCF7 [22] = assay: Cell cycle arrest in human MCF7 cells assessed as increase in G2/M phase accumulation at 1 time GI50 after 25 hrs by flow cytometry; type: functional, cell-based
MCF7 [23] = assay: Cell cycle arrest in human MCF7 cells assessed as increase in G2/M phase accumulation at 4 times GI50 after 25 hrs by flow cytometry; type: functional, cell-based
MCF7 [24] = assay: Cell cycle arrest in human MCF7 cells assessed as increase in S phase accumulation at 0.1 uM after 16 hrs by FACS analysis; type: functional
MCF7 [25] = assay: Cell cycle arrest in human MCF7 cells assessed as increase in G2/M phase accumulation at 0.1 uM after 16 hrs by FACS analysis; type: functional
MCF7 [26] = assay: Cell cycle arrest in human MCF7 cells assessed as increase in G0/G1 phase accumulation at 0.1 uM after 16 hrs by FACS analysis; type: functional

GI50 (HT-29 [7]) | GI50 (MCF7 [10]) | Structure (SMILES) | Activity (MCF7 [1]) | Activity (MCF7 [2]) | Activity (MCF7 [5]) | Activity (M21 [8]) | GI50 (M21 [9]) | further results
– | – | CCNC(=O)Nc1ccc(C2CCCCC2)cc1 | 55% | 22% | 23% | – | – | Activity (HT-29 [3]): inactive; Activity (MCF7 [4]): inactive; Activity (M21 [6]): inactive
12.5 µM | 19 µM | O=C(NCCCl)Nc1ccc(OC2CCCCCC2)cc1 | 75% | 6% | 19% | Active | 18 µM | –
– | – | CC(C)(C)c1ccc(NC(=O)NCCCl)cc1 | – | – | – | – | – | Activity (MCF7 [11]): 58%; Activity (M21 [12]): inactive; Activity (MCF7 [13]): 17%; Activity (M21 [14]): inactive; Activity (MCF7 [15]): 24%
31 µM | 49 µM | O=C(NCCCl)Nc1ccc(OC2CCCC2)cc1 | 72% | 9% | 19% | Active | 38 µM | –
12.6 µM | 21 µM | O=C(NCCCl)Nc1ccc(C2CCCCC2)cc1 | 71% | 13% | 16% | Active | 21 µM | Activity (M21 [16]): Active; Activity (MCF7 [17]): Active; Activity (M21 [12]): Active; Activity (MCF7 [18]): Active; Activity (MCF7 [19]): Active
23 µM | 45 µM | O=C(NCCCl)Nc1ccc(OC2CCCCC2)cc1 | 57% | 14% | 29% | Active | 36 µM | –
– | – | O=C(NCCCl)Nc1ccc(I)cc1 | – | – | – | – | – | Activity (MCF7 [11]): 42%; Activity (M21 [20]): Active; Activity (MCF7 [13]): 25%; Activity (MCF7 [15]): 33%
10.7 µM | 21 µM | O=C(NCCCl)Nc1cccc(OC2CCCCCC2)c1 | 72% | 6% | 22% | Active | 20 µM | –
5.6 µM | 24 µM | O=C(NCCCl)Nc1cccc(Oc2ccccc2)c1 | 44% | 30% | 26% | inactive | 16 µM | –
19 µM | 22 µM | O=C(NCCCl)NC1c2ccccc2-c2ccccc21 | 63% | 8% | 29% | Active | 27 µM | –
2.4 µM | 9.1 µM | O=C(NCCCl)Nc1ccc(Oc2ccccc2)cc1 | – | – | – | – | 5.2 µM | Activity (MCF7 [11]): 65%; Activity (M21 [20]): inactive; Activity (MCF7 [13]): 15%; Activity (MCF7 [15]): 20%
7.9 µM | 25 µM | O=C(NCCCl)Nc1cccc(OC2CCCCC2)c1 | 59% | 8% | 33% | Active | 20 µM | –
9.9 µM | 35 µM | O=C(NCCCl)Nc1cccc(OC2CCCC2)c1 | 64% | 12% | 24% | Active | 22 µM | –
25 µM | 8.3 µM | CCC(C)SSc1ncc[nH]1 (stereo not drawn) [PX-12] | – | – | – | – | 8.3 µM | Activity (MCF7 [11]): 58%; Activity (MCF7 [13]): 29%; Activity (MCF7 [15]): 13%
1.9 µM | 5.6 µM | O=C(NCCCl)Nc1ccc2ccccc2c1 | 17% | 45% | 38% | Active | 4.1 µM | –
3.6 µM | 14.1 µM | O=C(NCCCl)Nc1ccc2c(c1)CCC2 | – | – | – | – | 8 µM | Activity (MCF7 [11]): 40%; Activity (MCF7 [21]): Active; Activity (MCF7 [22]): Active; Activity (MCF7 [13]): 31%; Activity (MCF7 [23]): Active; Activity (MCF7 [15]): 29%
– | – | COc1cc2c(c(OC)c1OC)-c1ccc(OC)c(=O)cc1[C@@H](NC(C)=O)CC2 [COLCHICINE] | – | – | – | – | – | Activity (MCF7 [24]): 19%; Activity (MCF7 [25]): 62%; Activity (MCF7 [26]): 19%
– | – | CC(=O)O[C@H]1C(=O)[C@@]2(C)[C@H]([C@H](OC(=O)c3ccccc3)[C@]3(O)C[C@H](OC(=O)[C@H](O)[C@@H](NC(=O)c4ccccc4)c4ccccc4)C(C)=C1C3(C)C)[C@]1(OC(C)=O)CO[C@@H]1C[C@@H]2O [PACLITAXEL] | – | – | – | – | – | Activity (MCF7 [24]): 11%; Activity (MCF7 [25]): 80%; Activity (MCF7 [26]): 9%
